Results on 15 molecules are retold here after patent US4548944A, “Guanidino-heterocyclyl-phenyl-amidines and salts thereof” (Istituto de Angeli S.p.A., priority 1982, dated 1985).

Data set [1] has as its target T1, histamine H2 -receptors (Rattus norvegicus, UniProt P25102).
T1 construct: intravenous or intraduodenal administration in stomach-perfused rats; from tissue; host or cells: stomach of the anesthetized living rat (in vivo)
The data set can be described thus: In vivo antisecretory activity on histamine-induced gastric secretion of acid (stomach-perfused rat). As to conditions: iv, histamine 1 mg/kg/hr, values expressed as base, read-out: ED50, inhibition of histamine-induced gastric secretion. The source says:
The ability of the test compounds to inhibit histamine-induced gastric secretion of acid was investigated after intravenous or intraduodenal administration in stomach-perfused rats, according to Gosh and Schild, Br. J. Pharmacol. Chemother. 13, 54, (1958).
The preparation of the animals under general anesthesia (urethane, 1 g/kg i.p.) and constant temperature, was achieved by inserting and tying in place polyethyl tubes (PE 50) in the esophagus and in the pyloricantral region. After the stomach was washed to remove residual of foods, continuous perfusion of the stomach was started with saline, 0.5 ml/min. (37° C.), primed by a Jobling peristaltic pump. After 30 minutes of perfusion adaptation, the stomach perfusate was collected in 30 min. samples, and titrated for acid content, expressed as μEq of NaOH 1N. As control acid output became constant, intravenous perfusion of histamine (1 mg/kg/hr) was started and maintained throughout the experimental period. After the acid secretion had reached the steadily higher level, increasing doses of the test compounds were injected intravenously in order to obtain dose-response functions. The ED50 was then calculated by standard procedure.

For a further data set, the system named is Swiss mice. The data set can be described thus: Acute toxicity, single oral dose in Swiss mice. The data set is classed as in vivo. As to conditions: 500 mg/kg, fasted 18 hours, mortality at 14 days, values expressed as base. As to the method:
The acute toxicity of the particularly preferred compounds of the formula I was approximately determined by oral administration of a single dose to groups of 5 Swiss mice, fasted for 18 hours before the test. The evaluation of the incidence of mortality was considered 14 days after the administration. The results are shown in the following table, in which the values are expressed taking the compound as a base.

Data set [2] addresses T2, histamine H2 -receptors (Cavia porcellus, UniProt P47747).
T2 construct: isolated guinea pig atria suspended in an organ bath; from tissue; host or cells: isolated guinea pig atria
The data set can be described thus: In vitro inhibition of histamine-induced tachycardia (positive chronotropic effect) in isolated guinea pig atria. The conditions noted are these: Krebs-Henseleit pH 7.4, 32° C., histamine 10^-6 g/ml, 30 min contact. Here is the method: The myocardial preparation, loaded with 1 gm isometric tension, was allowed to stabilize 60 minutes, and myocardial contractions were recorded through an isometric lever connected to a strain-gauge coupler, and the instantaneous rate was monitored with a cardiotachometer and a heat-writing pen recorder. After two control responses to histamine (10^-6 g/ml) the test compound was added to the bath at the desired final concentration and left for 30 minutes before the atria were again challenged with histamine. The chronotropic obtained in the presence of the antagonist was then compared to the control response to histamine, and the percent reduction of the histamine H2 -evoked response was calculated. […] 3, Smooth muscle, Ed. Daniel, E. E. Paton, M., Plenum Press, New York (1975); Ash and Schild, Br. J.Pharmacol. Chemother. 27, 427-439, 1966.

In another data set the test system is gastric acid secretion. As to conditions: cited from earlier work; for inhibition of gastric acid secretion relative to cimetidine: in vivo, literature.
In the next data set the test system is H2 -receptor. The conditions noted are these: in vitro, literature; cited from earlier work.

T2 sequence (P47747 whole entry): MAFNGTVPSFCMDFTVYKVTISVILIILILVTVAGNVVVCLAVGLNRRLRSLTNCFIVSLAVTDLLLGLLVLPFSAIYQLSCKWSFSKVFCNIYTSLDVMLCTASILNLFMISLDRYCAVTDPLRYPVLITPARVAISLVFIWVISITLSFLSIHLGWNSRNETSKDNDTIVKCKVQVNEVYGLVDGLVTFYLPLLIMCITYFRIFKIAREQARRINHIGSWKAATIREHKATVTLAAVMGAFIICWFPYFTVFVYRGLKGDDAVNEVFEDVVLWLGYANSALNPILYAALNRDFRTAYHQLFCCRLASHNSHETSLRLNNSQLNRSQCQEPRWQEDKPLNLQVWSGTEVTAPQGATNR
T1 sequence (P25102 whole entry, the tested form may be a part): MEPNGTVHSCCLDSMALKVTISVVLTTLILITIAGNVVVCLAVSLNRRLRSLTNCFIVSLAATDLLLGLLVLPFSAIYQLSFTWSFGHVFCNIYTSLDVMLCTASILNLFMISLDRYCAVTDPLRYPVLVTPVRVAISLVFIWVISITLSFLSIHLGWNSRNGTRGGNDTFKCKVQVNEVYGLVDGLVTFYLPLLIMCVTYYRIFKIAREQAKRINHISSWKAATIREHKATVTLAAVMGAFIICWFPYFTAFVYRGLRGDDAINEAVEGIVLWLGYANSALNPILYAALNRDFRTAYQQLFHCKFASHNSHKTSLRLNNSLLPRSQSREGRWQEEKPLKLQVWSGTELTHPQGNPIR

`CCCNC=Nc1cccc(-c2csc(NC(=N)N)n2)c1` [14(b), N-Propyl-N'-[3-(2-guanidino-4-thiazolyl)-phenyl]-formamidine]: the ED50 on histamine H2 -receptors [1] is 0.019 mg/kg. For the same molecule, the “No. Dead/No. Treated Mice” value in the data set with Swiss mice is recorded as 0/5. This molecule yielded an EC50 at histamine H2 -receptors [2] of 280 nM.
As for `CN/C=N/c1cccc(-c2csc(N=C(N)N)n2)c1` [Example 14, N-Methyl-N'-[3-(2-guanidino-4-thiazolyl)-phenyl]-formamidine], the ED50 at histamine H2 -receptors [1] stood at 0.02 mg/kg. In the data set with Swiss mice, the “No. Dead/No. Treated Mice” value is given as 0/5. Besides, the EC50 at histamine H2 -receptors [2] was determined as 330 nM.
For the molecule `C#CCNC=Nc1cccc(-c2csc(NC(=N)N)n2)c1` [14(l), N-Propargyl-N'-[3-(2-guanidino-4-thiazolyl)-phenyl]-formamidine], the ED50 at histamine H2 -receptors [1] turned out to be 0.074 mg/kg. In addition, the “No. Dead/No. Treated Mice” value in the data set with Swiss mice is 0/5. Further, on histamine H2 -receptors [2], the EC50 came out at 3100 nM.
For the molecule `CNC(=C[N+](=O)[O-])NCCSCc1ccc(CN(C)C)o1` [ranitidine], the “inhibition of gastric acid secretion relative to cimetidine” value in the data set on gastric acid secretion is “more potent than cimetidine”. Further, the “H2 -receptor antagonist potency relative to cimetidine” value in the data set with H2 -receptor was “more potent than cimetidine”.
As to `CC(C)NC=Nc1cccc(-c2csc(NC(=N)N)n2)c1` [14(c), N-Isopropyl-N'-[3-(2-guanidino-4-thiazolyl)-phenyl]-formamidine], the median effective dose (ED50) on histamine H2 -receptors [1] amounted to 0.035 mg/kg. Moreover, in the data set on Swiss mice, the “No. Dead/No. Treated Mice” value is given as 1/5. At histamine H2 -receptors [2], this molecule came in with an EC50 of 200 nM.
For `CCNC=Nc1cccc(-c2csc(NC(=N)N)n2)c1` [14(a), N-Ethyl-N'-[3-(2-guanidino-4-thiazolyl)phenyl]-formamidine], the ED50 at histamine H2 -receptors [1] amounted to 0.013 mg/kg. In addition, the “No. Dead/No. Treated Mice” value in the data set with Swiss mice was 0/5. Moreover, the midpoint of the response at histamine H2 -receptors [2], the EC50, lay at 530 nM.
For the molecule `N=C(N)Nc1nc(-c2cccc(N=CNCCCO)c2)cs1` [14(s), N-(3-Hydroxy-propyl)-N'-[3-(2-guanidino-4-thiazolyl)-phenyl]-formamidine], the ED50 at histamine H2 -receptors [1] came to 0.028 mg/kg. For the same molecule, the “No. Dead/No. Treated Mice” value with Swiss mice is recorded as 0/5. The molecule further displayed an EC50 on histamine H2 -receptors [2] of 270 nM.
With `COCCNC=Nc1cccc(-c2csc(NC(=N)N)n2)c1` [14(p), N-(2-Methoxy-ethyl)-N'-[3-(2-guanidino-4-thiazolyl)-phenyl]-formamidine], the ED50 at histamine H2 -receptors [1] was 0.05 mg/kg. For the same molecule, the “No. Dead/No. Treated Mice” value in the data set with Swiss mice is 0/5. The EC50 on histamine H2 -receptors [2] came out at 480 nM.
In the case of `CCNC=Nc1cccc(-c2nsc(NC(=N)N)n2)c1` [14(ap), N-Ethyl-N'-[3-(5-guanidino-1,2,4-thiadiazol-3-yl)-phenyl]-formamidine], the ED50 on histamine H2 -receptors [1] turned out to be 0.051 mg/kg. For the same molecule, in the data set with Swiss mice, the “No. Dead/No. Treated Mice” value was 0/5. On histamine H2 -receptors [2], this molecule yielded an EC50 of 450 nM.
`C=CCNC=Nc1cccc(-c2csc(NC(=N)N)n2)c1` [14(j), N-Allyl-N'-[3-(2-guanidino-4-thiazolyl)-phenyl]-formamidine]: the ED50 at histamine H2 -receptors [1] came to 0.02 mg/kg. Also, the “No. Dead/No. Treated Mice” value with Swiss mice is listed as 0/5. Also, on histamine H2 -receptors [2], the EC50 turned out to be 330 nM.
The matching figures for `CC(C)CNC=Nc1cccc(-c2csc(NC(=N)N)n2)c1` [14(f), N-Isobutyl-N'-[3-(2-guanidino-4-thiazolyl)-phenyl]-formamidine]: 0.082 mg/kg, 0/5 and 1200 nM.
As for `CCC(C)NC=Nc1cccc(-c2csc(NC(=N)N)n2)c1` (centres unmarked) [14(e), N-sec.Butyl-N'-[3-(2-guanidino-4-thiazolyl)-phenyl]-formamidine], the ED50 at histamine H2 -receptors [1] was 0.041 mg/kg. Besides, the “No. Dead/No. Treated Mice” value with Swiss mice is given as 0/5. Also, it took 300 nM to reach a half-maximal effect at histamine H2 -receptors [2] (EC50).
In the case of `COc1ccc(CN(CCN(C)C)c2ccccn2)cc1` [mepyramine], in the data set on gastric acid secretion (literature (Black et al.)), the “effect on gastric acid secretion” value is given as “no effect on gastric acid secretion”.
On to `CCCCNC=Nc1cccc(-c2csc(N=C(N)N)n2)c1` [14(d), N-Butyl-N'-[3-(2-quanidino-4-thiazolyl)-phenyl]-formamidine], for which, at histamine H2 -receptors [1], the ED50 is 0.073 mg/kg. In the data set with Swiss mice, the “No. Dead/No. Treated Mice” value is recorded as 4/5. The molecule also yielded an EC50 at histamine H2 -receptors [2] of 550 nM.
For the molecule `CNC(=NCCSCc1csc(N=C(N)N)n1)NC#N` [tiotidine], the “inhibition of gastric acid secretion relative to cimetidine” value in the data set on gastric acid secretion is given as “more potent than cimetidine”. Also, the “H2 -receptor antagonist potency relative to cimetidine” value with H2 -receptor was “more potent than cimetidine”.
